US6346535B1, “Fungicidal mixtures” (American Cyanamid Company, priority 1999, dated 2002)
Like-named read-outs stand apart in the source and are kept apart here.

Key:
Format in all cases: in vivo
[1] = test system: Erysiphe cichoracearum on cucumbers; test: Greenhouse trial, 4 day residual, Erysiphe cichoracearum on cucumbers; conditions: Golovinomyces cichoracearum, 96 h, read-out: Observed Efficacy; for pest or weed control at 0.4 ppm: dose rate 0.4 ppm; for pest or weed control at 2 ppm: dose rate 2 ppm; for pest or weed control at 10 ppm: dose rate 10 ppm; for pest or weed control at 50 ppm: dose rate 50 ppm
Summary of the method: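 Cucumber plants were sprayed to near run-off with compounds or mixtures (5% acetone/0.05% Tween 20 aqueous). Four days later they were inoculated by dusting with Erysiphe cichoracearum conidia. Percent diseased leaf area was assessed about 7 days after inoculation, and efficacy and Colby synergy were calculated from it.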

[2] = test system: Puccinia recondita on wheat; test: Greenhouse trial, 4 day residual, Puccinia recondita on wheat; conditions: Puccinia recondita, 96 h, read-out: Observed Efficacy; for pest or weed control at 4 ppm: dose rate 4 ppm; for pest or weed control at 16 ppm: dose rate 16 ppm; for pest or weed control at 64 ppm: dose rate 64 ppm; for pest or weed control at 256 ppm: dose rate 256 ppm; for pest or weed control at 0.4 ppm: dose rate 0.4 ppm; for pest or weed control at 2 ppm: dose rate 2 ppm; for pest or weed control at 10 ppm: dose rate 10 ppm; for pest or weed control at 50 ppm: dose rate 50 ppm
Summary of the method: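 Wheat plants sprayed at primary-leaf stage with compounds, alone or in mixtures, in 5% acetone/0.05% Tween 20 water, then inoculated 4 days later with Puccinia recondita spore suspension and held 1-2 days in a moist chamber. Percent diseased leaf area scored about 7 days post-inoculation, excluding leaf tips and bases; efficacy calculated, synergy by Colby.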

[3] = test system: Leptosphaeria nodorum on wheat; test: Greenhouse trial, 4 day residual, Leptosphaeria nodorum on wheat; conditions: Parastagonospora nodorum, 96 h, compound alone, read-out: Observed Efficacy; for pest or weed control at 4 ppm: dose rate 4 ppm; for pest or weed control at 16 ppm: dose rate 16 ppm; for pest or weed control at 64 ppm: dose rate 64 ppm; for pest or weed control at 256 ppm: dose rate 256 ppm
Summary of the method: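 Wheat at full primary-leaf expansion sprayed with aqueous formulated compounds or mixtures (technical material in 5% acetone/0.05% Tween 20) to near run-off or at 200 l/ha, inoculated 4 days later with spore suspension and held 1-2 days in a moist chamber. Percent diseased leaf area scored about 7 days post-inoculation, excluding leaf tips and bases; synergy judged by Colby formula.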

[4] = test system: Pyrenophora teres on barley; test: Greenhouse trial, 4 day residual, Pyrenophora teres on barley; conditions: Pyrenophora teres, 96 h, 4 day residual, read-out: Observed Efficacy; for pest or weed control at 0.4 ppm: dose rate 0.4 ppm; for pest or weed control at 2 ppm: dose rate 2 ppm; for pest or weed control at 10 ppm: dose rate 10 ppm; for pest or weed control at 50 ppm: dose rate 50 ppm
[5] = test system: Blumeria graminis f. sp. tritici on wheat; test: Greenhouse trial, 2 day curative, Blumeria graminis f. sp. tritici on wheat; conditions: Table XVII, compound alone
Method: (§1) The trials are carried out under greenhouse (Examples 1 to 18) or field conditions (Example 19) in residual or curative applications. The fungicides are applied in single treatments, or in a combination comprising a benzophenone of formula I and a compound selected from (A) through (E) as defined above. The compounds are applied in form of an aqueous spray mix obtained from a concentrated formulation or the technical material.
(§2) 1. Seed is planted in 6 cm diameter plastic pots and maintained in the greenhouse.
(§3) 2. When the primary leaf is fully expanded (in the case of cereals) or several leaves are present (in the case of dicots), formulated test compounds are sprayed with a three nozzle overhead fungicide sprayer to near run-off. Alternatively, a single nozzle overhead track sprayer is used for application of the compounds to cereals at a rate of 200 liters/ha (l/ha). Plants are then allowed to air-dry.
(§4) 3. Inoculation precedes treatment in the case of curative evaluations and follows treatment in case of residual evaluations. For inoculation of powdery mildew disease, plants are set up on greenhouse benches with bottom watering mats and inoculated by dusting them with conidia from infected plants. Between inoculation and treatment for curative evaluations and between treatment and inoculation for residual evaluations, plants are maintained in the greenhouse with bottom watering. For inoculation of non-powdery mildew diseases, an aqueous spore suspension of the pathogen is applied to the plant and the plants are kept 1-2 days in a moist infection chamber before being returned to the greenhouse where they are maintained by bottom watering.
(§5) 4. Disease on the foliage as percent leaf area with disease symptoms/signs is evaluated about 7 days after inoculation. In the case of wheat, the tips and bases of the leaves are excluded from the evaluation. [formula]
(§6) 1. Technical compounds are formulated in a solvent/surfactant system consisting of 5% acetone and 0.05% Tween 20 in deionized water. Compounds are dissolved in acetone prior to addition of the water; the Tween 20 can be added through either the acetone or the water. Dilutions are made using the solvent/surfactant system. Formulated compounds are prepared using deionized water.
(§7) Assessments of the diseases took place at the indicated day after the application of the compounds. Per cent infected leaf area infected was evaluated. The efficacy of the compounds/compounds mixtures to control the diseases was calculated by using the formula given above under item 4: […]
(§8) Synergy of a fungicide mixture was determined by comparing the actual (observed) fungicidal activity of the mixture to the expected fungicidal activity of the mixture as calculated using the COLBY formula given hereinabove.
Fungicidal Efficacy of the Mixture of Different Benzophenones+Metconazole (2 Day Curative) Against Blumeria graminis f. sp. tritici on Wheat
The tank mixes were obtained from technical material of the benzophenones BP-2 and BP-4 and metconazole.

[6] = test system: Uncinula necator on vines; test: Greenhouse trial, 1 day residual, Uncinula necator on vines; conditions: Table XVIII, compound alone
Method: as §1, §2, §3, §4, §5, §6, §7, §8
Fungicidal Efficacy of the Mixture of BP-4+AP-4 (1 Day Residual) Against Uncinula necator on Vines
The tank mixes were obtained from technical material of BP-4 and AP-4. The active ingredients, the type of formulations, the observed and expected efficacies with different rates are given in Table XVIII: […]

[7] = Table XIV (Example 14), 4 day residual
[8] = Table XV (Example 15), 4 day residual

## COc1cc(C)c(C(=O)c2c(OC)ccc(Br)c2C)c(OC)c1OC [BP-4, 5-bromo-2′,6-dimethyl-2,4′,5′,6′-tetramethoxybenzophenone]
[1]; Table VI, compound alone, dose rate 1 ppm
  pest or weed control at 1 ppm: 1%
[1]; Table VI, compound alone, dose rate 4 ppm
  pest or weed control at 4 ppm: 6%
[1]; Table VI, compound alone, dose rate 16 ppm
  pest or weed control at 16 ppm: 51%
[1]; Table VI, compound alone, dose rate 64 ppm
  pest or weed control at 64 ppm: 100%
[1]; Table XI, compound alone
  pest or weed control at 0.4 ppm: 0%
  pest or weed control at 2 ppm: 2%
  pest or weed control at 10 ppm: 55%
  pest or weed control at 50 ppm: 96%
[1]; [7]
  pest or weed control at 0.4 ppm: 0%
  pest or weed control at 2 ppm: 0%
  pest or weed control at 10 ppm: 13%
  pest or weed control at 50 ppm: 97%
[2]; Table IX, compound alone
  pest or weed control at 4 ppm: 6%
  pest or weed control at 16 ppm: 4%
  pest or weed control at 64 ppm: 16%
  pest or weed control at 256 ppm: 38%
[2]; Table VII, compound alone
  pest or weed control at 4 ppm: 0%
  pest or weed control at 16 ppm: 0%
  pest or weed control at 64 ppm: 0%
  pest or weed control at 256 ppm: 13%
[2]; Table XII, compound alone
  pest or weed control at 0.4 ppm: 2%
  pest or weed control at 2 ppm: 7%
  pest or weed control at 10 ppm: 10%
  pest or weed control at 50 ppm: 31%
[2]; [8]
  pest or weed control at 0.4 ppm: 0%
  pest or weed control at 2 ppm: 0%
  pest or weed control at 10 ppm: 6%
  pest or weed control at 50 ppm: 12%
[3]; Table VIII
  pest or weed control at 4 ppm: 0%
  pest or weed control at 16 ppm: 0%
  pest or weed control at 64 ppm: 14%
  pest or weed control at 256 ppm: 34%
[3]; Table X
  pest or weed control at 4 ppm: 0%
  pest or weed control at 16 ppm: 10%
  pest or weed control at 64 ppm: 18%
  pest or weed control at 256 ppm: 44%
[4]; Table XIII (Example 13)
  pest or weed control at 0.4 ppm: 0%
  pest or weed control at 2 ppm: 0%
  pest or weed control at 10 ppm: 34%
  pest or weed control at 50 ppm: 58%
[4]; Table XVI (Example 16)
  pest or weed control at 0.4 ppm: 0%
  pest or weed control at 2 ppm: 0%
  pest or weed control at 10 ppm: 0%
  pest or weed control at 50 ppm: 11%
[5]; dose rate 0.67 ppm
  Observed Efficacy: 9%
[5]; dose rate 2 ppm
  Observed Efficacy: 27%
[5]; dose rate 6 ppm
  Observed Efficacy: 42%
[5]; dose rate 18 ppm
  Observed Efficacy: 78%
[5]; dose rate 54 ppm
  Observed Efficacy: 92%
[6]; dose rate 0.25 ppm
  Observed Efficacy: 0%
[6]; dose rate 0.5 ppm
  Observed Efficacy: 21%
[6]; dose rate 1 ppm
  Observed Efficacy: 28%
[6]; dose rate 2 ppm
  Observed Efficacy: 9%
[6]; dose rate 4 ppm
  Observed Efficacy: 43%
[6]; dose rate 8 ppm
  Observed Efficacy: 42%
